# Measurements taken from the supplement of paper PMC10307832.
# Key:
# Assay in all cases: relative viability (nuclei count vs DMSO), 5 days (fraction); higher = more cells survive
# [1] = test system: EMC-BAC-2
# Method in brief: (§1)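 Lung cancer cell lines in 1536-well plates were dosed by pin tool the day after seeding, either with one drug alone or with a fixed anchor-drug dose plus five library-drug doses (not always all listed) in √10 steps. After 5 days, cells were fixed and their nuclei stained in one step (final 0.05% Triton X-100, 1% formaldehyde, 1 ug/ml Hoechst), then counted on 4× images. Relative viability is the nuclei count in treated wells divided by that in vehicle wells. Values are medians of duplicate plates.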
# [2] = test system: LK-2
# Method in brief: as §1
# [3] = test system: NCI-H727
# Method in brief: as §1
# [4] = test system: HOP-62
# Method in brief: as §1
# [5] = test system: RERF-LC-KJ
# Method in brief: as §1
# [6] = test system: NCI-H1650
# Method in brief: as §1
# [7] = test system: NCI-H1651
# Method in brief: as §1
# [8] = test system: NCI-H1437
# Method in brief: as §1
# [9] = test system: HARA
# Method in brief: as §1
# [10] = test system: HCC-366
# Method in brief: as §1
# [11] = test system: COR-L23
# Method in brief: as §1
compound,measurement,setting,value
CCNC(=O)c1noc(-c2cc(C(C)C)c(O)cc2O)c1-c1ccc(CN2CCOCC2)cc1 [Luminespib] + O=C(CCCCCCC(=O)Nc1ccccc1)NO [Vorinostat] (partner 1 µM),relative viability,[1]; first compound 0.002 µM,0.461
same,relative viability,[1]; first compound 0.02 µM,0.263
same,relative viability,[1]; first compound 0.06325 µM,0.148
same,relative viability,[1]; first compound 0.2 µM,0.178
same,relative viability,[2]; first compound 0.002 µM,0.305
same,relative viability,[2]; first compound 0.006325 µM,0.374
same,relative viability,[2]; first compound 0.02 µM,0.201
same,relative viability,[2]; first compound 0.06325 µM,0.146
same,relative viability,[2]; first compound 0.2 µM,0.163
same,relative viability,[3]; first compound 0.002 µM,1.1
same,relative viability,[3]; first compound 0.006325 µM,1.21
same,relative viability,[3]; first compound 0.02 µM,0.832
same,relative viability,[3]; first compound 0.06325 µM,1.04
same,relative viability,[3]; first compound 0.2 µM,0.31
same,relative viability,[4]; first compound 0.002 µM,0.527
same,relative viability,[4]; first compound 0.006325 µM,0.555
same,relative viability,[4]; first compound 0.02 µM,0.454
same,relative viability,[4]; first compound 0.06325 µM,0.18
same,relative viability,[4]; first compound 0.2 µM,0.0867
same,relative viability,[5]; first compound 0.002 µM,0.624
same,relative viability,[5]; first compound 0.006325 µM,0.707
same,relative viability,[5]; first compound 0.02 µM,0.473
same,relative viability,[5]; first compound 0.06325 µM,0.467
same,relative viability,[5]; first compound 0.2 µM,0.216
same,relative viability,[6]; first compound 0.002 µM,0.478
same,relative viability,[6]; first compound 0.006325 µM,0.516
same,relative viability,[6]; first compound 0.02 µM,0.388
same,relative viability,[6]; first compound 0.06325 µM,0.139
same,relative viability,[6]; first compound 0.2 µM,0.135
same,relative viability,[7]; first compound 0.002 µM,0.516
same,relative viability,[7]; first compound 0.006325 µM,0.481
same,relative viability,[7]; first compound 0.02 µM,0.371
same,relative viability,[7]; first compound 0.06325 µM,0.542
same,relative viability,[7]; first compound 0.2 µM,0.505
same,relative viability,[8]; first compound 0.002 µM,0.92
same,relative viability,[8]; first compound 0.006325 µM,0.828
same,relative viability,[8]; first compound 0.02 µM,0.82
same,relative viability,[8]; first compound 0.06325 µM,0.601
same,relative viability,[8]; first compound 0.2 µM,0.218
same,relative viability,[9]; first compound 0.002 µM,0.51
same,relative viability,[9]; first compound 0.006325 µM,0.504
same,relative viability,[9]; first compound 0.02 µM,0.591
same,relative viability,[9]; first compound 0.06325 µM,0.589
same,relative viability,[9]; first compound 0.2 µM,0.132
same,relative viability,[10]; first compound 0.002 µM,0.38
same,relative viability,[10]; first compound 0.006325 µM,0.35
same,relative viability,[10]; first compound 0.02 µM,0.18
same,relative viability,[10]; first compound 0.06325 µM,0.0252
same,relative viability,[10]; first compound 0.2 µM,0.0243
same,relative viability,[11]; first compound 0.002 µM,0.469
same,relative viability,[11]; first compound 0.006325 µM,0.364
same,relative viability,[11]; first compound 0.02 µM,0.396
same,relative viability,[11]; first compound 0.06325 µM,0.0788
same,relative viability,[11]; first compound 0.2 µM,0.0814
